Entries after “also recorded” stand apart in the source; their conditions may differ.
Assays:
Type in all cases: binding
[1] = target: T1, H2A.Z (Homo sapiens, UniProt P0C0S5); test: RNA electrophoresis mobility shift assay (REMSA) with H2A.Z protein; conditions: in vitro, 32P-labeled oligonucleotide, full length purified H2A.Z
T1 construct: 5 μg of full length purified H2A.Z (Abcam) and TIP60 (SignalChem) proteins were incubated; purchased Abcam
Procedure: (§1) RNA oligonucleotides (15 pmol) were end-labeled with [γ-^32P] ATP (Perkin Elmer) and T4 polynucleotide kinase (New England Biolabs). Reactions were incubated at 37° C. for 1 h and then passed through G-25 spin columns (GE Healthcare) according to the manufacturer's instructions to remove unincorporated radioactivity. Labeled samples were gel-purified on 10% polyacrylamide gels. Binding reactions were carried out in 10 μL volumes in the following buffer: 5 mM Tris pH 7.4, 5 mM MgCl2, 1 mM DTT, 3% v/v glycerol, 100 mM NaCl. 5 μg of full length purified H2A.Z (Abcam) and TIP60 (SignalChem) proteins were incubated with 1.1 nM of ^32P-labeled ss RNAs. All reactions were assembled on ice and then incubated at room temperature for 30 min. Samples were loaded onto 6% native polyacrylamide gels (0.5×TBE) at 4° C. for 3 h at 140 V. Various concentrations (1 μM-10 mM) of H2A.Z and K7 acetylated H2A.Z peptides (AnaSpec) were incubated with a fixed amount of probe in 50 mM Tris-HCl pH 7.5, 100 mM NaCl, 0.4 mM EDTA, and 40 U/ml RNasin, 1 mM DTT, 50% glycerol in a final volume of 10 μL. Thereafter, 1 μl glutaraldehyde (0.2% final concentration) was added into the mixture and incubated at room temperature for 15 minutes. Samples were loaded onto 10% native polyacrylamide gels (0.5×TBE) at 4° C. for 3 h at 170 V. All gels were dried upon fixation with Methanol and Acetic Acid and exposed to X-ray film.

[2] = target: T2, H2A.Z and K7 acetylated H2A.Z peptides (Homo sapiens, UniProt P0C0S5); test: REMSA with N-terminal H2A.Z peptides; conditions: in vitro, synthetic peptides
T2 construct: purchased AnaSpec
Procedure: as §1

[3] = target: TIP60 (Homo sapiens, UniProt Q92993); test: REMSA/EMSA with TIP60 protein; design: 5 μg of full length purified H2A.Z (Abcam) and TIP60 (SignalChem) proteins were incubated; purchased SignalChem; conditions: in vitro, 32P-labeled oligonucleotide, purified TIP60; RNA and DNA probes at same molar concentration
Procedure: as §1

Sequence of TIP60 (Q92993 whole entry): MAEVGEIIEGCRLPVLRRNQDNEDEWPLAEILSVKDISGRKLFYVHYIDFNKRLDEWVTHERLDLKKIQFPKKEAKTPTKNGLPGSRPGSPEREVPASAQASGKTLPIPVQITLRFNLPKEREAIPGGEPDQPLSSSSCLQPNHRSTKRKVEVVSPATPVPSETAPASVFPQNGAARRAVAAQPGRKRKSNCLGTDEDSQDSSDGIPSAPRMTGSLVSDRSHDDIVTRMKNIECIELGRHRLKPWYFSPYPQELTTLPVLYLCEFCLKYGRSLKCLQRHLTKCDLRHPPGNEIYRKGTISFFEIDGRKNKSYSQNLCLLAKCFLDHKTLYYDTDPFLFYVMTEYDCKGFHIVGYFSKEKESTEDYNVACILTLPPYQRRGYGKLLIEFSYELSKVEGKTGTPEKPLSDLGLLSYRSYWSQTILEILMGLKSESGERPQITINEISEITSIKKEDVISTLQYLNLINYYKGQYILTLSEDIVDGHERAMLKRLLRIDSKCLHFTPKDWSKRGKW
T1 sequence (P0C0S5 whole entry): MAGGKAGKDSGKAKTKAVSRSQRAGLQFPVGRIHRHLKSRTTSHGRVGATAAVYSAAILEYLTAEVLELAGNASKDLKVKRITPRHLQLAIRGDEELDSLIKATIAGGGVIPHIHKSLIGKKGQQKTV
T2 sequence (P0C0S5 2-21): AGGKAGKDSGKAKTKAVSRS

| Substance | RNP complex formation with H2A.Z [1] | shift in migration with H2A.Z N-terminal peptides, unmodified and acetylated at lysine 7 [2] | complex formation with TIP60 [3] |
| --- | --- | --- | --- |
| RM9A: RNA oligonucleotide of common binding motif 9 in c-MYC SPEARs, 5′-GGCGUGGCGGUGGGCGCGCAGU-3′, SEQ ID NO 85 (GGCGUGGCGGUGGGCGCGCAGU; RNA, backbone not given here; further chemistry not fully specified) | able to form RNPs | A shift in migration was observed | able to form RNPs; also recorded: stronger TIP60 binding to the RNAs than to the DNA |
| DM3: DNA oligonucleotide duplex of the same primary sequence as UR3 (sense GGCGTGGCGGTGGGCGCGCAGT; antisense ACTGCGCGCCCACCGCCACGCC; DNA, backbone and methylation of C not given here; further chemistry not fully specified) |  |  | weak complex formation |
| DM9A: double-stranded DNA oligonucleotide of the same primary sequence as RM9A (sense GCCCTTTCCCCAGCCTTAGCGA; antisense TCGCTAAGGCTGGGGAAAGGGC; DNA, backbone and methylation of C not given here; further chemistry not fully specified) |  |  | stronger TIP60 binding to the RNAs than to the DNA |
| UR3: unrelated RNA oligonucleotide lacking the common binding motif, SEQ ID NO 89 (GCCCUUUCCCCAGCCUUAGCGA; RNA, backbone not given here; further chemistry not fully specified) | did not form detectable RNPs complexes |  | did not form detectable RNPs complexes |
| UR1: unrelated RNA oligonucleotide lacking the common binding motif, SEQ ID NO 87 (GCGCCCUGCAGCCUGGUACGCG; RNA, backbone not given here; further chemistry not fully specified) | did not form detectable RNPs complexes |  | did not form detectable RNPs complexes |
| Mut RM9A: mutated RM9A abolishing the predicted stem-loop structure, SEQ ID NO 86 (UUAUGUUAUUGUUUAUAUACGU; RNA, backbone not given here; further chemistry not fully specified) |  |  | did change the strength and the mobility of the RNA-TIP60 complexes |
| DM2: DNA oligonucleotide duplex of the same primary sequence as UR2 (sense CTTTCCTCCACTCTCCCTGGGA; antisense TCCCAGGGAGAGTGGAGGAAAG; DNA, backbone and methylation of C not given here; further chemistry not fully specified) |  |  | weak complex formation |
| UR2: unrelated RNA oligonucleotide lacking the common binding motif, SEQ ID NO 88 (CUUUCCUCCACUCUCCCUGGGA; RNA, backbone not given here; further chemistry not fully specified) | did not form detectable RNPs complexes |  | did not form detectable RNPs complexes |

— patent US20240209456A1, “METHODS AND COMPOSITIONS RELATED TO CELL-CYCLE RNA's” (BETH ISRAEL DEACONESS MEDICAL CENTER, priority 2021, published 2024)
